Assay results: patent US20250304563A1, “ACTIVATORS OF EFFECTOR T CELLS” (Orum Therapeutics, Inc., priority 2022, published 2025)
pIC50: −log10 of the molar value.

Tests used:
[1] = target: Cbl-b (36-427 aa truncated form, N-terminus Avi-tag) (Homo sapiens (Human), UniProt Q13191); assay: Cbl-b binding: TR-FRET displacement of BODIPY-FL probe
Summary of the method: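 Avi-tagged Cbl-b 36-427 preincubated 1 h at RT with streptavidin-terbium in HEPES pH 7.5/NaCl/Triton/BSA/TCEP buffer, then 1 uM BODIPY-FL inhibitor probe plus compound added for 1 h. Probe displacement read by TR-FRET; IC50 fitted.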

Human primary T cells [2] = assay: T cell activation: CD69 surface expression by flow cytometry; format: cell-based; conditions: fold over anti-CD3 stimulated background normalized to Compound 141A; for CD69 10 nM: 10 nM compound; for CD69 100 nM: 100 nM compound
Summary of the method: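 Negatively selected human primary T cells (1×10^5/well, XVivo-15) were captured on plates coated with 10 μg/mL anti-CD3 (OKT3). They were exposed to serially diluted compounds in duplicate for 48 h at 37° C. CD69 was read by flow cytometry as fold over anti-CD3-only background, normalized to Compound 141A and binned into ranges.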

Human primary T cells [3] = assay: T cell activation: secreted IFN-y; format: cell-based; conditions: 48 hours, fold over background normalized to Compound 141A; for IFN-y 1 nM: 1 nM compound; for IFN-y 10 nM: 10 nM compound; for IFN-y 100 nM: 100 nM compound
Summary of the method: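 Negatively selected primary human T cells (1×10^5/well, serum-free XVivo-15) on plates coated with 10 μg/mL anti-CD3 were exposed to serial compound dilutions for 48 h at 37 °C. Secreted IFN-γ was measured by cytometric bead array and expressed as fold over anti-CD3/CD28 background, normalized to a reference compound and binned into ranges A–D.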

Human primary T cells [4] = assay: T cell activation: secreted IL-2; format: cell-based; conditions: 48 hours, fold over background normalized to Compound 141A; for IL-2 1 nM: 1 nM compound; for IL-2 10 nM: 10 nM compound; for IL-2 100 nM: 100 nM compound
Summary of the method: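 Negatively selected human primary T cells on plate-bound anti-CD3 (OKT3) in serum-free medium, treated 48 h at 37° C. with serial compound dilutions in duplicate. Secreted IL-2 by bead-based cytometric assay, expressed as fold over anti-CD3/CD28 background normalized to a reference compound, then binned into ranges.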

Cbl-b (36-427 aa truncated form, N-terminus Avi-tag), sequence (Q13191 36-427): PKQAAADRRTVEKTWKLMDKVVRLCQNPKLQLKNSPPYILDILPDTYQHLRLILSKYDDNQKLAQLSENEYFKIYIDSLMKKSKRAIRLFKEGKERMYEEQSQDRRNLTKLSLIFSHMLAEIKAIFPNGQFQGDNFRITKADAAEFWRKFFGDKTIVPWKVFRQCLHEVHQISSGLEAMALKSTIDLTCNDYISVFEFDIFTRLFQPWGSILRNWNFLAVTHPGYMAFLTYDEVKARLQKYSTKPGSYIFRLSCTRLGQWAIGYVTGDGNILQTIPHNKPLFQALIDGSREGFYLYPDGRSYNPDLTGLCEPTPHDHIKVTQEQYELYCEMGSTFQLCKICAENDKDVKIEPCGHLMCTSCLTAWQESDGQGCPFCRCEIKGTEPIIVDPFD

Structure (SMILES)	pIC50 [1]	CD69 10 nM (Human primary T cells [2])	CD69 100 nM (Human primary T cells [2])	IFN-y 1 nM (Human primary T cells [3])	IFN-y 10 nM (Human primary T cells [3])	IFN-y 100 nM (Human primary T cells [3])	IL-2 1 nM (Human primary T cells [4])	IL-2 10 nM (Human primary T cells [4])	IL-2 100 nM (Human primary T cells [4])
C[C@H]1CCCN(Cc2cc3c(c(C(F)(F)F)c2)CN(c2cc(C4(Cc5nncn5C)COC4)cc(NCC#N)n2)C3=O)C1 [Compound 119, (S)-2-((4-(3-((4-methyl-4H-1,2,4-triazol-3-yl)methyl)oxetan-3-yl)-6-(6-((3-methylpiperidin-1-yl)methyl)-1-oxo-4-(trifluoromethyl)isoindolin-2-yl)pyridin-2-yl)amino)acetonitrile]	8.30 to 9.00	B (values between 0.61 and 0.80: range “B;”)	A (values between 0.81 and 1.10: range “A”)	C (values between 0.10 and 0.30: range “C”)	B (values between 0.31 and 1.00: range “B;”)	B (values between 0.31 and 1.00: range “B;”)	C (values between 0.10 and 0.30: range “C”)	B (values between 0.31 and 0.79: range “B”)	B (values between 0.31 and 0.79: range “B”)
C[C@H]1CCCN(Cc2cc3c(c(C(F)(F)F)c2)CN(c2cc(C4(Cc5nncn5C)COC4)cc(SCC(O)CO)n2)C3=O)C1.O=CO (stereo partly drawn) [Compound 120, 2-{6-[(2,3-dihydroxypropyl)sulfanyl]-4-{3-[(4-methyl-1,2,4-triazol-3-yl)methyl]oxetan-3-yl}pyridin-2-yl}-6-{[(3S)-3-methylpiperidin-1-yl]methyl}-4-(trifluoromethyl)-3H-isoindol-1-one; formic acid]	7.00 to 7.70	C (values between 0.30 and 0.60: range “C”)	C (values between 0.30 and 0.60: range “C”)	C (values between 0.10 and 0.30: range “C”)	C (values between 0.10 and 0.30: range “C”)	C (values between 0.10 and 0.30: range “C”)	C (values between 0.10 and 0.30: range “C”)	C (values between 0.10 and 0.30: range “C”)	C (values between 0.10 and 0.30: range “C”)
C=CC(=O)N1CCN(c2cc(C3(Cc4nncn4C)COC3)cc(N3Cc4c(cc(CN5CCC[C@H](C)C5)cc4C(F)(F)F)C3=O)n2)CC1 [Compound 121, (S)-2-(6-(4-acryloylpiperazin-1-yl)-4-(3-((4-methyl-4H-1,2,4-triazol-3-yl)methyl)oxetan-3-yl)pyridin-2-yl)-6-((3-methylpiperidin-1-yl)methyl)-4-(trifluoromethyl)isoindolin-1-one]	7.00 to 7.70	C (values between 0.30 and 0.60: range “C”)	A (values between 0.81 and 1.10: range “A”)	C (values between 0.10 and 0.30: range “C”)	C (values between 0.10 and 0.30: range “C”)	B (values between 0.31 and 1.00: range “B;”)	C (values between 0.10 and 0.30: range “C”)	C (values between 0.10 and 0.30: range “C”)	B (values between 0.31 and 0.79: range “B”)
C[C@H]1CCCN(Cc2cc3c(c(C(F)(F)F)c2)CN(c2cc(C4(Cc5nncn5C)COC4)cc(OCCCC#N)n2)C3=O)C1.O=C(O)C(F)(F)F [Compound 122, 4-[(4-{3-[(4-methyl-1,2,4-triazol-3-yl)methyl]oxetan-3-yl}-6-(6-{[(3S)-3-methylpiperidin-1-yl]methyl}-1-oxo-4-(trifluoromethyl)-3H-isoindol-2-yl)pyridin-2-yl)oxy]butanenitrile; trifluoroacetic acid]	8.30 to 9.00	B (values between 0.61 and 0.80: range “B;”)	A (values between 0.81 and 1.10: range “A”)	C (values between 0.10 and 0.30: range “C”)	B (values between 0.31 and 1.00: range “B;”)	B (values between 0.31 and 1.00: range “B;”)	C (values between 0.10 and 0.30: range “C”)	B (values between 0.31 and 0.79: range “B”)	B (values between 0.31 and 0.79: range “B”)
CC(C)C(C#N)Oc1cc(C2(Cc3nncn3C)COC2)cc(N2Cc3c(cc(CN4CCC[C@H](C)C4)cc3C(F)(F)F)C2=O)n1.O=CO (stereo partly drawn) [Compound 123, 3-methyl-2-[(4-{3-[(4-methyl-1,2,4-triazol-3-yl)methyl]oxetan-3-yl}-6-(6-{[(3S)-3-methylpiperidin-1-yl]methyl}-1-oxo-4-(trifluoromethyl)-3H-isoindol-2-yl)pyridin-2-yl)oxy]butanenitrile; formic acid]	8.30 to 9.00	C (values between 0.30 and 0.60: range “C”)	B (values between 0.61 and 0.80: range “B;”)	C (values between 0.10 and 0.30: range “C”)	C (values between 0.10 and 0.30: range “C”)	B (values between 0.31 and 1.00: range “B;”)	C (values between 0.10 and 0.30: range “C”)	C (values between 0.10 and 0.30: range “C”)	B (values between 0.31 and 0.79: range “B”)
C[C@H]1CCCN(Cc2cc3c(c(C(F)(F)F)c2)CN(c2cc(C4(Cc5nncn5C)COC4)cc(SCCC(=O)O)n2)C3=O)C1 [Compound 124, 3-[(4-{3-[(4-methyl-1,2,4-triazol-3-yl)methyl]oxetan-3-yl}-6-(6-{[(3S)-3-methylpiperidin-1-yl]methyl}-1-oxo-4-(trifluoromethyl)-3H-isoindol-2-yl)pyridin-2-yl)sulfanyl]propanoic acid]	6.00 to 7.00	C (values between 0.30 and 0.60: range “C”)	C (values between 0.30 and 0.60: range “C”)	C (values between 0.10 and 0.30: range “C”)	C (values between 0.10 and 0.30: range “C”)	C (values between 0.10 and 0.30: range “C”)	C (values between 0.10 and 0.30: range “C”)	C (values between 0.10 and 0.30: range “C”)	C (values between 0.10 and 0.30: range “C”)
C=CC(=O)NCCNc1cc(C2(Cc3nncn3C)COC2)cc(N2Cc3c(cc(CN4CCC[C@H](C)C4)cc3C(F)(F)F)C2=O)n1 [Compound 125, (S)-N-(2-((4-(3-((4-methyl-4H-1,2,4-triazol-3-yl)methyl)oxetan-3-yl)-6-(6-((3-methylpiperidin-1-yl)methyl)-1-oxo-4-(trifluoromethyl)isoindolin-2-yl)pyridin-2-yl)amino)ethyl)acrylamide]	7.70 to 8.30	C (values between 0.30 and 0.60: range “C”)	A (values between 0.81 and 1.10: range “A”)	C (values between 0.10 and 0.30: range “C”)	C (values between 0.10 and 0.30: range “C”)	B (values between 0.31 and 1.00: range “B;”)	C (values between 0.10 and 0.30: range “C”)	C (values between 0.10 and 0.30: range “C”)	B (values between 0.31 and 0.79: range “B”)
CCSc1cc(C2(Cc3nncn3C)COC2)cc(N2Cc3c(NC)cc(CN4CCC[C@H](C)C4)cc3C2=O)n1.O=CO [Compound 130, 2-[6-(ethylsulfanyl)-4-{3-[(4-methyl-1,2,4-triazol-3-yl)methyl]oxetan-3-yl}pyridin-2-yl]-4-(methylamino)-6-{[(3S)-3-methylpiperidin-1-yl]methyl}-3H-isoindol-1-one; formic acid]	7.70 to 8.30	C (values between 0.30 and 0.60: range “C”)	B (values between 0.61 and 0.80: range “B;”)	C (values between 0.10 and 0.30: range “C”)	C (values between 0.10 and 0.30: range “C”)	B (values between 0.31 and 1.00: range “B;”)	C (values between 0.10 and 0.30: range “C”)	C (values between 0.10 and 0.30: range “C”)	B (values between 0.31 and 0.79: range “B”)
C#CCCS(=O)(=O)N1CCN(c2cc(C3(Cc4nncn4C)COC3)cc(N3Cc4c(cc(CN5CCC[C@H](C)C5)cc4C(F)(F)F)C3=O)n2)CC1 [Compound 134, (S)-2-(6-(4-(but-3-yn-1-ylsulfonyl)piperazin-1-yl)-4-(3-((4-methyl-4H-1,2,4-triazol-3-yl)methyl)oxetan-3-yl)pyridin-2-yl)-6-((3-methylpiperidin-1-yl)methyl)-4-(trifluoromethyl)isoindolin-1-one]	7.70 to 8.30	B (values between 0.61 and 0.80: range “B;”)	A (values between 0.81 and 1.10: range “A”)	B (values between 0.31 and 1.00: range “B;”)	B (values between 0.31 and 1.00: range “B;”)	B (values between 0.31 and 1.00: range “B;”)	C (values between 0.10 and 0.30: range “C”)	B (values between 0.31 and 0.79: range “B”)	B (values between 0.31 and 0.79: range “B”)
